Laboratory results: patent US20240269292A1
Entries after “also recorded” stand apart in the source; their conditions may differ. Non-standard residues stand in square brackets, D forms with d. Residues, ends and D or L forms follow the SMILES beside them. Dmt = Cc1cc(O)cc(C)c1C[C@H](N)C(=O)O

Columns and labels:
[1] = test system: retinal pigment epithelium (RPE) cells; format: cell-based
Experimental: (§1) Cells are then treated with drug (or control phosphate-buffered saline (PBS) solution) and assayed for effects on mitochondrial dysfunction and other cellular changes.
Mitochondrial dysfunction is manifest as increased flavoprotein autofluorescence (upper panels) and as dysmorphology of the actin cytoskeleton (lower panels). […] EY005-stearyl was also preincubated with carboxyesterase (0.1 μg/mL) in separate media.
(§2) Mitochondrial dysfunction can be modeled using in vitro cell culture systems relevant to retinal disease. In one such system, retinal pigment epithelium (RPE) cells are cultured to post-confluence to establish a differentiated cell monolayer and are then assayed for mitochondrial dysfunction and effect of drugs for treatment of mitochondrial dysfunction (FIG. 5). In this model, mitochondrial dysfunction is induced by two exposures to nonlethal doses of hydroquinone (HQ) at day −3 and day 0. Hydroquinone (HQ), a well-known environmental toxicant ubiquitously present in Western lifestyle, is a biochemical inducer of mitochondrial dysfunction. When HQ is added to fully differentiated RPE cell cultures, HQ competes with mitochondrial ubiquinone, siphoning high-energy electrons from electron transport chain, which then reduces oxygen into superoxide, leading to cardiolipin peroxidation and mitochondrial dysfunction. Cells are then treated with a drug of interest (mitochondrial targeted peptide drug or a prodrug thereof) or control (phosphate-buffered saline (PBS) solution and assayed for effects on mitochondrial dysfunction, as measured by microscopy of flavoprotein autofluorescence (a measure of mitochondrial electron transport chain complex II decompensation) (FIG. 6).

RPE cells of rabbit eyes = assay: Rabbit ocular hydroquinone (HQ) model of dry AMD (DCFDA, vimentin, phalloidin on RPE flatmounts); format: in vivo
Experimental: FIG. 12 illustrates one example of a relevant animal model, specifically a rabbit-based protocol used to characterize the prodrugs of mitochondrial targeted tetrapeptides described herein. In this model, HQ (0.05 mL, 250 mM HQ) is injected into the vitreous cavity of rabbit eye on day 0 and day 1, and drug of interest (mitochondrial targeted peptide or prodrug thereof) or control (PBS) solution is injected into the same vitreous cavity of the rabbit eye at day 2. At day 4, the rabbit is euthanized, and eyes recovered for histologic analysis of retina and RPE flatmounts for various metrics, including cellular oxidation (DCFDA), as a surrogate of mitochondrial dysfunction, as well as for other cellular markers.
The rabbit hydroquinone (HQ) model of dry AMD (FIG. 12) was induced and flatmount of retinal pigment epithelium (RPE) were isolated.
Scores were determined by masked expert graders in at least 100 RPE cells from at least 3 eyes per condition.
A rabbit model of mitochondrial dysfunction is also used to assay bioactivity of MTT and prodrugs derived thereof. […] On day 2, the MTT (e.g., EY005, 15 μM) were injected IVT. On day 3, a fluorogenic dye that measures hydroxyl, peroxyl and other reactive oxygen species (e.g., DCFDA) was injected IVT, and tissues were collected 12 hours later. RPE flatmounts were processed for multiple readouts: oxidation byproducts (DCFDA, FIG. 13) and measures of RPE-associated extracellular matrix (cytosolic vimentin expression, FIG. 14), and RPE cell dysmorphology (i.e., actin cytoskeleton (phalloidin), FIG. 14). All were analyzed and quantified by microscopy.
For example, in the rabbit ocular hydroquinone model, systemic administration of the maximally tolerated human dose of mitochondrial-targeted peptide (EY005) allometrically scaled for the rabbit, only partially restores RPE actin cytoskeletal integrity (FIG. 15D). In contrast, IVT injection of EY005 results in downregulation of RPE vimentin expression (FIG. 14) and restoration of normal RPE actin cytoskeleton integrity (FIG. 15C). […] IVT EY005 treatment produced an approximately 75% reduction of oxidation byproducts. […] In this setting, retinal and RPE tissue levels achieved by IVT administration in rabbits are substantially higher than tissue levels obtained by SQ administration of the maximally tolerated human dose allometrically scaled for rabbits.

mouse retinal tissues = assay: Mouse experimental retinal vein occlusion (RVO) model; format: in vivo
Description: Control, untreated mice show undetectable FP-AF and superoxide.
Control, untreated mice show normal synaptic markers.
FIGS. 11H-111 show visual function as quantified by electroretinogram (ERG) in mice treated with control, RVO and RVO with EY005 pretreatment or EY005 post-treatment. B-wave amplitudes were quantified from at least 5 eyes for each condition.

[2] = Accelerated in vitro release assay with complexation agents in methyl laurate; format: physicochemical; settings: EY005 MTT formulated with various complexation agents, methyl laurate dispersal medium
Description: In all cases, all EY005 was rapidly released, in some cases within hours, and in all cases by day 3.

[3] = In vitro release kinetics of pilot formulation of Mito XR; format: physicochemical; settings: same complexation agent and dispersal medium as Mito XR
[4] = rabbit
Description: In some examples, cleavage and release of the free bioactive mitochondrial targeted tetrapeptide can be assessed following in vivo injection of the implant containing the prodrug within the extended release drug delivery system into the vitreous cavity or periocular tissues of a preclinical animal model (e.g., mouse, rat, rabbit, pig, etc.) (FIG. 29), wherein ocular tissue is recovered, and analytic methods such as HPLC or mass spectrometry can be used to calculate the amount of free bioactive mitochondrial targeted tetrapeptide and intact prodrug, at various timepoints after in vivo injection.

[5] = Theoretical in vivo release pharmacokinetics from XRDDS in vitreous cavity of rabbit eyes (FIGS. 31-32); settings: theoretical data
Description: FIG. 31 illustrates theoretical in vivo release pharmacokinetic data comparing release kinetics of unmodified EY005 from the novel extended-release drug delivery system to that of two EY005 prodrugs, each of which is also formulated in the novel extended-release drug delivery system and injected into the vitreous cavity of rabbit eyes.
FIG. 32 illustrates theoretical in vivo release pharmacokinetic data comparing release kinetics of unmodified EY005 from the novel extended-release drug delivery system to that of two EY005 prodrugs, each of which is also formulated in the novel extended-release drug delivery system and injected into the vitreous cavity of rabbit eyes.

[6] = test system: retinal pigment epithelium (RPE) cells; assay: HQ-induced mitochondrial dysfunction in RPE cells (flavoprotein autofluorescence); format: cell-based; settings: HQ-exposed RPE cells, versus elamipretide or native EY005
Experimental: as §1
as §2, with “When HQ is added to fully differentiated RPE cell cultures, HQ competes with mitochondrial ubiquinone, siphoning high-energy electrons from electron transport chain, which then reduces oxygen into superoxide, leading to cardiolipin peroxidation and mitochondrial dysfunction.” left out

[7] = test system: retinal pigment epithelium (RPE) cells; assay: Dysregulated extracellular matrix (vimentin) in HQ-exposed RPE cells; format: cell-based; settings: ≥5 μM
Experimental: as §1
as §2, with “When HQ is added to fully differentiated RPE cell cultures, HQ competes with mitochondrial ubiquinone, siphoning high-energy electrons from electron transport chain, which then reduces oxygen into superoxide, leading to cardiolipin peroxidation and mitochondrial dysfunction.” left out

[8] = test system: retinal pigment epithelium (RPE) cells; assay: Actin cytoskeleton disorganization (phalloidin) in HQ-exposed RPE cells; format: cell-based; settings: 5 μM
Experimental: as §1
as §2, with “When HQ is added to fully differentiated RPE cell cultures, HQ competes with mitochondrial ubiquinone, siphoning high-energy electrons from electron transport chain, which then reduces oxygen into superoxide, leading to cardiolipin peroxidation and mitochondrial dysfunction.” left out

rabbit RPE = assay: Rabbit ocular hydroquinone (HQ) model of dry AMD; format: in vivo
[9] = In vivo kinetics after intravitreal Mito XR bolus in rabbit eyes, LC/MS
[10] = Hydrophobicity and aqueous solubility; format: physicochemical
[11] = cultured RPE cells, dose-response
[12] = cultured RPE cells, high dose (≥5 μM)
[13] = rabbit, single IVT dose of 15 μg, 36 hrs. after drug treatment

Cc1cc(O)cc(C)c1C[C@H](NC(=O)[C@H](N)CCCNC(=N)N)C(=O)N[C@@H](CCCCN)C(=O)N[C@@H](Cc1ccccc1)C(=O)O [EY005, H-d-Arg-DMT-Lys-Phe] (H-[dR][Dmt]KF-OH)
reversal of HQ-induced mitochondrial dysfunction (flavoprotein autofluorescence) ([1]; HQ-exposed cultured RPE cells): reversal of induced mitochondrial dysfunction; also recorded: near complete reversal of mitochondrial dysfunction | efficacy and potency for reduction of flavoprotein autofluorescence compared to elamipretide ([1]; HQ-exposed cultured RPE cells, dose-response): equivalent efficacy and potency; also recorded: comparable or equivalent dose-response and potency to elamipretide | efficacy and potency for reversal of actin cytoskeleton disorganization compared to elamipretide [1, 11]: equivalent efficacy and potency | efficacy and potency for reversal of dysregulated extracellular matrix (vimentin) compared to elamipretide [1, 11]: equivalent efficacy and potency | reversal of actin cytoskeleton disorganization (phalloidin staining) [1, 12]: reversal of actin cytoskeleton disorganization | reversal of dysregulated extracellular matrix (vimentin expression) [1, 12]: reversal of dysregulated extracellular matrix | reversal of mitochondrial dysfunction (oxidant species) in RPE of rabbit eyes (RPE cells of rabbit eyes; rabbit HQ model, 15 μM IVT, within 36 hours of treatment): reduced oxidant species; also recorded: potent for reversal of mitochondrial dysfunction | reversal of RPE cytoskeletal dysmorphology, intravitreal (RPE cells of rabbit eyes; rabbit HQ model, intravitreal 15 μM): near complete reversal of RPE cytoskeletal dysmorphology | reversal of RPE cytoskeletal dysmorphology, subcutaneous (RPE cells of rabbit eyes; rabbit HQ model, subcutaneous 0.9 mg/kg once daily): only partial reversal of RPE cytoskeletal dysmorphology | retinal toxicity (RPE cells of rabbit eyes; rabbit, single IVT dose of 15 μg): no retinal toxicity was observed | reduction of cytoskeleton disorganization (phalloidin) (RPE cells of rabbit eyes; [13]): approximately 80% | reduction of oxidation byproducts (DCFDA) (RPE cells of rabbit eyes; [13]): approximately 75% | reversal of vimentin stain (RPE cells of rabbit eyes; [13]): approximately 90% | markers of mitochondrial dysfunction (flavoprotein autofluorescence and superoxide) following RVO (mouse retinal tissues; mouse, 3 mg/kg BID subcutaneous): significantly attenuates both markers of mitochondrial dysfunction | synaptic markers (SV2, ZNP-1) in inner and outer plexiform layers following RVO (mouse retinal tissues; mouse, 3 mg/kg BID subcutaneous, pretreatment or posttreatment): significantly prevents (pretreatment) and reverses (posttreatment) loss of synaptic markers | ERG B-wave amplitude following RVO (mouse retinal tissues; mouse, pretreatment or post-treatment): significantly prevented or reversed loss of B-wave amplitude | efficacy in treatment of mouse model of RVO (mouse retinal tissues; systemic dose greater than the maximally tolerated dose in humans (allometrically scaled)): partially effective | time by which all EY005 was released [2]: ≤ 3 days | release of native peptide formulated identically to Mito XR [3]: extremely rapid release; also recorded: excessive release | residual drug in recovered bolus, native peptide formulation ([4]; IVT bolus formulation of EY005 native peptide): contained no EY005 native peptide; also recorded: no residual drug in the recovered bolus | time by which tissue concentrations were nearly undetectable ([4]; IVT identical bolus formulation containing EY005 native peptide): ≤ 3.5 week | time beyond which EY005 tissue levels were not detectable ([4]; IVT multiphasic colloidal suspension bolus of EY005 native peptide): ≤ 21 days | time to nearly complete release of unmodified EY005 from XRDDS [5]: approximately 30 days | Potency for reversal of mitochondrial dysfunction relative to comparator [6]: equipotent to elamipretide | Reversal of dysregulated extracellular matrix (vimentin) [7]: reverses dysregulation of RPE extracellular matrix | Reversal of actin cytoskeleton disorganization [8]: restores normal RPE cell morphology | Reversal of RPE cytoskeletal dysmorphology (rabbit RPE; 0.9 mg/kg subcutaneous once daily): only partially effective | Efficacy of intravitreal versus subcutaneous administration (rabbit RPE; intravitreal injection): significantly more effective | Residual drug in recovered bolus ([9]; bolus formulation of EY005 native peptide): no residual drug | Retinal tissue concentrations ([9]; through 7-week timepoint (Mito XR), week 3.5 (EY005 native peptide bolus)): nearly undetectable | Hydrophobicity [10]: highly hydrophilic | Aqueous solubility ([10]; native form): high aqueous solubility
